In the RepoRT retention time repository (doi:10.1016/j.jpba.2019.06.042):

Test: Agilent ZORBAX Eclipse Plus C18, 150 × 2.1 mm, 3.5 µm, 0.2 mL/min, estimated dead time 1.7 min; A: water + 0.1% formic acid; B: acetonitrile; gradient (min/%B) 0/10 20/54 23/100 32/100
Conditions: stereoisomer not certain

| LC retention time [min] | SMILES |
| --- | --- |
| 15 | O=C1CC(c2ccc(O)cc2)Oc2cc(O)cc(O)c21 (stereo not given) |
| 13.5 | O=c1c(O)c(-c2ccc(O)cc2)oc2cc(O)cc(O)c12 |
| 26.9 | O=c1c2cccc(O)c2oc2cc(O)cc(O)c12 |
| 6.6 | O=C(C=Cc1ccc(O)c(O)c1)OC1C(O)CC(O)(C(=O)O)CC1O (stereo not given) |
| 20.1 | Cc1c(O)c(CC2=C(O)C(C)(C)C(=O)C(C(=O)C(C)C)=C2O)c(O)c(C(=O)C(C)C)c1O |
| 15.2 | COc1cc(C=CC(=O)O)cc(OC)c1O |
| 12.2 | COc1c(-c2ccc(O)c(O)c2)oc2cc(O)cc(O)c2c1=O |
| 10.3 | CC1=CC(=O)CC(C)(C)C1(O)C=CC(C)OC1OC(CO)C(O)C(O)C1O (stereo not given) |
| 20.5 | O=c1ccc2ccc(O)cc2o1 |
| 23.6 | CC(C)(OC1OC(CO)C(O)C(O)C1O)C1CCC(CO)(C(O)CO)O1 (stereo not given) |
| 25.7 | COc1ccc2c(=O)c3cccc(O)c3oc2c1 |
| 10.6 | O=c1c(O)c(-c2ccc(O)c(O)c2)oc2cc(O)cc(O)c12 |
| 20.4 | CC(C)=CCC1CC2(CC=C(C)C)C(=O)C(=C(O)c3ccccc3)C(=O)C(CC=C(C)C)(C2=O)C1(C)C (stereo not given) |
| 8.8 | O=c1c(OC2OC(CO)C(O)C(O)C2O)c(-c2ccc(O)c(O)c2)oc2cc(O)cc(O)c12 (stereo not given) |
| 31.6 | C=C(C)C1CC=C2C(O)CC(O)C(C)C2(C)C1 (stereo not given) |
| 28.8 | CC(C)=CCc1c(O)cc(O)c2c(=O)c3ccc(O)c(O)c3oc12 |
| 10.2 | CC1OC(Oc2cc(O)c3c(=O)c(O)c(-c4ccc(O)cc4)oc3c2)C(O)C(O)C1O (stereo not given) |
| 18.3 | CC(C)=CCCC(C)=CCc1c(O)c(CC2=C(O)C(C)(C)C(=O)C(C(=O)C(C)C)=C2O)c(O)c(C(=O)C(C)C)c1O |

| LC retention time [min] | SMILES |
| --- | --- |
| 22.7 | COc1ccc2ccc(=O)oc2c1 |
| 11.6 | O=C1c2c(O)cc(O)cc2OC(c2ccc(O)c(O)c2)C1O (stereo not given) |
| 9.3 | O=C(O)C1OC(Oc2c(-c3ccc(O)c(O)c3)oc3cc(O)cc(O)c3c2=O)C(O)C(O)C1O (stereo not given) |
| 3.1 | O=C(O)C1(O)CC(O)C(O)C(O)C1 (stereo not given) |
| 18.4 | CCC(C)C(=O)c1c(O)c(C)c(O)c(CC2=C(O)C(C)(C)C(=O)C(C(=O)C(C)C)=C2O)c1O (stereo not given) |
| 5.2 | O=C(C=Cc1ccc(O)c(O)c1)OC1CC(O)(C(=O)O)CC(O)C1O (stereo not given) |
| 12.5 | COc1cc(O)c2c(=O)c(O)c(-c3ccc(O)cc3)oc2c1 |
| 26 | COc1ccc2ccc(=O)oc2c1CC=C(C)C |
| 29 | CC1(C)C=Cc2c(cc(O)c3c(=O)c4cccc(O)c4oc23)O1 |
| 14.9 | O=c1cc(-c2ccc(O)c(-c3c(O)cc(O)c4c(=O)cc(-c5ccc(O)cc5)oc34)c2)oc2cc(O)cc(O)c12 |
| 9.7 | CC1OC(OCC2OC(Oc3c(-c4ccc(O)c(O)c4)oc4cc(O)cc(O)c4c3=O)C(O)C(O)C2O)C(O)C(O)C1O (stereo not given) |
| 13.6 | O=c1c(-c2c(O)cc(O)c3c(=O)cc(-c4ccc(O)cc4)oc23)c(-c2ccc(O)cc2)oc2cc(O)cc(O)c12 |
| 15.4 | CCC(C)C(=O)c1c(O)c(C)c(OCC=C(C)CCC=C(C)C)c(C(C)=O)c1O (stereo not given) |
| 15.9 | COc1cc2oc(-c3ccccc3)c(OC)c(=O)c2c(OC)c1OC |
| 9.9 | CC1OC(Oc2c(-c3ccc(O)c(O)c3)oc3cc(O)cc(O)c3c2=O)C(O)C(O)C1O (stereo not given) |
| 14 | O=C1c2c(O)cc(O)cc2OC(c2ccc(O)cc2)C1O (stereo not given) |
| 15.6 | CC1(C)C=Cc2c(cc(O)c3c(=O)c4ccc(O)c(O)c4oc23)O1 |
